Laboratory results from EP2951180B1, “2,6,7,8 SUBSTITUTED PURINES AS HDM2 INHIBITORS” (Merck Sharp & Dohme Corp., priority 2013, dated 2014).

The molecules below were run against T1, HDM2 (Homo sapiens, UniProt Q00987) (assay: HDM2 FRET assay (inhibition of binding of FITC labeled p53-pocket peptide to HDM2)). Details: 0.5 nM HDM2 (residues 17 to 125), 3nM peptide, two hour incubation at room temperature; read-out: FRET IC50.
T1 construct: Thioredoxin (N); made in house; host or cells: E. coli strain BL21(DE3)Rosetta
Procedure, shortened: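 TR-FRET with 0.5 nM His-tagged recombinant HDM2, 3 nM FITC-labelled p53 peptide and 0.25 nM Tb-anti-His antibody in PBS, 0.01% BSA, 0.01% Tween-20, 0.1% DMSO. IC50 from em520/em495 ratio over 10-point dilutions, 4-parameter logistic fit.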

T1 sequence (Q00987 17-125): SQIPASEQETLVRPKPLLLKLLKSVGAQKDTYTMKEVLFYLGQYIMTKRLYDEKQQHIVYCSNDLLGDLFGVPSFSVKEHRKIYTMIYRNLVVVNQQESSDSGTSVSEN

For `C[C@@H](Nc1nc(-c2noc(=O)[nH]2)nc2nc(-c3cc(C(C)(C)O)c(F)cn3)n(C[C@H]3CC[C@H](C)CC3)c12)C1CCC1` [Example 15.9, 3-(6-(((R)-1-cyclobutylethyl)amino)-8-(5-fluoro-4-(2-hydroxypropan-2-yl)pyridin-2-yl)-7-((trans-4-methylcyclohexyl)methyl)-7H-purin-2-yl)-1,2,4-oxadiazol-5(4H)-one], which IC50 is on record?
Its IC50 is 3.95 nM.

For `CC(C)c1cc(-c2nc3nc(-c4noc(=O)[nH]4)nc(N[C@H](C)C4CCC4)c3n2C[C@H]2CC[C@H](C)CC2)ncc1F` [Example 15.10, 3-(6-(((R)-1-cyclobutylethyl)amino)-8-(5-fluoro-4-isopropylpyridin-2-yl)-7-((trans-4-methylcyclohexyl)methyl)-7H-purin-2-yl)-1,2,4-oxadiazol-5(4H)-one], which IC50 is on record?
Its IC50 is 11.8 nM.

With `C[C@@H](Nc1nc(C(=O)O)nc2nc(-c3nccs3)n(C[C@H]3CC[C@H](C)CC3)c12)C1CCC1` [Example 15.11, 6-(((R)-1-cyclobutylethyl)amino)-7-((trans-4-methylcyclohexyl)methyl)-8-(thiazol-2-yl)-7H-purine-2-carboxylic acid] as the molecule, how does the IC50 read?
Its IC50 is 2.45 nM.

Which IC50 does the source give for `C[C@@H](Nc1nc(-c2noc(=O)[nH]2)nc2nc(-c3nccs3)n(C[C@H]3CC[C@H](C)CC3)c12)C1CCC1` [Example 15.12, 3-(6-(((R)-1-cyclobutylethyl)amino)-7-((trans-4-methylcyclohexyl)methyl)-8-(thiazol-2-yl)-7H-purin-2-yl)-1,2,4-oxadiazol-5(4H)-one] here?
The IC50 was 6.28 nM.

`COc1ccc(C)cc1-c1nc2nc(C(=O)O)nc(N[C@H](C)C3CCC3)c2n1C[C@H]1CC[C@H](C)CC1` [Example 15.13, 6-{[(1R)-1-cyclobutylethyl]amino}-8-(2-methoxy-5-methylphenyl)-7-[(trans-4-methylcyclohexyl)methyl]-7H-purine-2-carboxylic acid] was tested. Which IC50 did it give?
The IC50 was 4.96 nM.

For `Cc1cccc(-c2nc3nc(C(=O)O)nc(N[C@H](C)C4CCC4)c3n2C[C@H]2CC[C@H](C)CC2)c1` [Example 15.14, 6-{[(1R)-1-cyclobutylethyl]amino}-7-[(trans-4-methylcyclohexyl)methyl]-8-(3-methylphenyl)-7H-purine-2-carboxylic acid], which IC50 is on record?
Its IC50 is 2.91 nM.

`CC(C)c1ccnc(-c2nc3nc(C(=O)O)nc(N[C@H](C)C4CCC4)c3n2C[C@H]2CC[C@H](C)CC2)c1` [Example 15.15, 6-{[(1R)-1-cyclobutylethyl]amino}-7-[(trans-4-methylcyclohexyl)methyl]-8-[4-(1-methylethyl)pyridin-2-yl]-7H-purine-2-carboxylic acid] was tested. Which IC50 did it give?
Its IC50 is 2.55 nM.

For `C[C@@H](Nc1nc(C(=O)O)nc2nc(-c3cc(C(C)(C)C)ccn3)n(C[C@H]3CC[C@H](C)CC3)c12)C1CCC1` [Example 15.16, 8-(4-tert-butylpyridin-2-yl)-6-{[(1R)-1-cyclobutylethyl]amino}-7-[(trans-4-methylcyclohexyl)methyl]-7H-purine-2-carboxylic acid], which IC50 is on record?
Its IC50 is 1.04 nM.

For `C[C@@H](Nc1nc(C(=O)O)nc2nc(-c3cc(C4CC4)ccn3)n(C[C@H]3CC[C@H](C)CC3)c12)C1CCC1` [Example 15.17, 6-{[(1R)-1-cyclobutylethyl]amino}-8-(4-cyclopropylpyridin-2-yl)-7-[(trans-4-methylcyclohexyl)methyl]-7H-purine-2-carboxylic acid], which IC50 is on record?
Its IC50 is 2.09 nM.

`C[C@@H](Nc1nc(C(=O)O)nc2nc(-c3cc(C4CCC4)ccn3)n(C[C@H]3CC[C@H](C)CC3)c12)C1CCC1` [Example 15.18, 6-{[(1R)-1-cyclobutylethyl]amino}-8-(4-cyclobutylpyridin-2-yl)-7-[(trans-4-methylcyclohexyl)methyl]-7H-purine-2-carboxylic acid] was tested. Which IC50 did it give?
Its IC50 is 1.8 nM.

Which IC50 does the source give for `C[C@H](C1CCC1)N(C)c1nc(C(=O)O)nc2nc(-c3cc(C(C)(C)C)ccn3)n(C[C@H]3CC[C@H](C)CC3)c12` [Example 15.20, 8-(4-tert-butylpyridin-2-yl)-6-{[(1R)-1-cyclobutylethyl] (methyl)amino} -7-[(trans-4-methylcyclohexyl)methyl]-7H-purine-2-carboxylic acid] here?
The IC50 was 17.9 nM.

Which IC50 does the source give for `Cc1cnc(-c2nc3nc(C(=O)O)nc(N[C@H](C)C4CCC4)c3n2C[C@H]2CC[C@H](C)CC2)cc1C` [Example 15.21, 6-{[(1R)-1-cyclobutylethyl]amino}-8-(4,5-dimethylpyridin-2-yl)-7-[(trans-4-methylcyclohexyl)methyl]-7H-purine-2-carboxylic acid] here?
Its IC50 is 8.44 nM.

For `CC(C)c1ccnc(-c2nc3nc(C(=O)O)nc(N[C@H](C)C(F)(F)F)c3n2C[C@H]2CC[C@H](C)CC2)c1` [Example 15.22, 7-[(trans-4-methylcyclohexyl)methyl]-8-[4-(1-methylethyl)pyridin-2-yl]-6-{[(1R)-2,2,2-trifluoro-1-methylethyl]amino}-7H-purine-2-carboxylic acid], which IC50 is on record?
Its IC50 is 17.9 nM.

How did the IC50 turn out when `C[C@@H](Nc1nc(-c2noc(=O)[nH]2)nc2nc(-c3cc(C(C)(C)O)ccn3)n(C[C@H]3CC[C@H](C)CC3)c12)C1CCC1` [Example 15.23, 3-(6-{[(1R)-1-cyclobutylethyl]amino}-8-[4-(1-hydroxy-1-methylethyl)pyridin-2-yl]-7-[(trans-4-methylcyclohexyl)methyl]-7H-purin-2-yl)-1 ,2,4-oxadiazol-5(4H)-one] was run?
The IC50 was 4.75 nM.

How did the IC50 turn out when `CCN(c1nc(-c2noc(=O)[nH]2)nc2nc(-c3cc(C(C)C)ccn3)n(C[C@H]3CC[C@H](C)CC3)c12)[C@H](C)C1CCC1` [Example 15.24, 3-(6-{[(1R)-1-cyclobutylethyl](ethyl)amino}-7-[(trans-4-methylcyclohexyl)methyl]-8-[4-(1-methylethyl)pyridin-2-yl]-7H-purin-2-yl)-1,2,4-oxadiazol-5(4H)-one] was run?
The IC50 was 716 nM.

Which IC50 does the source give for `CC(C)c1cc(-c2nc3nc(-c4noc(=O)[nH]4)nc(N[C@H](C)C4CCC4)c3n2C[C@H]2CC[C@H](C)CC2)[nH]c(=O)c1` [Example 15.25, 6-[6-{[(1R)-1-cyclobutylethyl]amino}-7-[(trans-4-methylcyclohexyl)methyl]-2-(5-oxo-2,5-dihydro-1,2,4-oxadiazol-3-yl)-7H-purin-8-yl]-4-(1-methylethyl)pyridin-2(1H)-one] here?
Its IC50 is 6.74 nM.

With `C[C@H]1CC[C@H](Cn2c(N3CCOCC3)nc3nc(-c4noc(=O)[nH]4)nc(-c4cccc(Cl)c4)c32)CC1` [Example 16.1, 3-(6-(3-chlorophenyl)-7-(((trans)-4-methylcyclohexyl)methyl)-8-morpholino-7H-purin-2-yl)-1,2,4-oxadiazol-5(4H)-one] as the molecule, how does the IC50 read?
Its IC50 is 71.7 nM.

With `C[C@H]1COCCN1c1nc2nc(-c3noc(=O)[nH]3)nc(-c3cccc(Cl)c3)c2n1C[C@H]1CC[C@H](C)CC1` [Example 16.2, 3-(6-(3-chlorophenyl)-7-(((trans)-4-methylcyclohexyl)methyl)-8-((S)-3-methylmorpholino)-7H-purin-2-yl)-1,2,4-oxadiazol-5(4H)-one] as the molecule, how does the IC50 read?
Its IC50 is 106 nM.

With `Cc1cccc(-c2nc(-c3n[nH]c(=O)o3)nc3nc(N4CCOCC4)n(C[C@H]4CC[C@H](C)CC4)c23)c1` [Example 16.3, 5-(7-(((trans)-4-methylcyclohexyl)methyl)-8-morpholino-6-(m-tolyl)-7H-purin-2-yl)-1,3,4-oxadiazol-2(3H)-one] as the molecule, how does the IC50 read?
The IC50 was 563 nM.

For `C[C@H](CO)Nc1nc2nc(-c3noc(=O)[nH]3)nc(-c3cccc(Cl)c3)c2n1C[C@H]1CC[C@H](C)CC1` [Example 16.4, 3-(6-(3-chlorophenyl)-8-(((R)-1-hydroxypropan-2-yl)amino)-7-(((trans)-4-methylcyclohexyl)methyl)-7H-purin-2-yl)-1,2,4-oxadiazol-5(4H)-one], which IC50 is on record?
The IC50 was 29.8 nM.

`C[C@](CO)(Nc1nc2nc(-c3noc(=O)[nH]3)nc(-c3cccc(Cl)c3)c2n1C[C@H]1CC[C@H](C)CC1)c1ccccc1` [Example 16.5, 3-(6-(3-chlorophenyl)-8-(((S)-1-hydroxy-2-phenylpropan-2-yl)amino)-7-(((trans)-4-methylcyclohexyl)methyl)-7H-purin-2-yl)-1,2,4-oxadiazol-5(4H)-one] was tested. Which IC50 did it give?
The IC50 was 1.59 nM.

Which IC50 does the source give for `C[C@@H]1COCCN1c1nc2nc(-c3noc(=O)[nH]3)nc(-c3cccc(Cl)c3)c2n1C[C@H]1CC[C@H](C)CC1` [Example 16.6, 3-(6-(3-chlorophenyl)-7-(((trans)-4-methylcyclohexyl)methyl)-8-((R)-3-methylmorpholino)-7H-purin-2-yl)-1,2,4-oxadiazol-5(4H)-one] here?
The IC50 was 8.05 nM.

How did the IC50 turn out when `C[C@@H]1COCCN1c1nc2nc(-c3n[nH]c(=O)o3)nc(-c3cccc(Cl)c3)c2n1C[C@H]1CC[C@H](C)CC1` [Example 16.7, 5-(6-(3-chlorophenyl)-7-(((trans)-4-methylcyclohexyl)methyl)-8-((R)-3-methylmorpholino)-7H-purin-2-yl)-1,3,4-oxadiazol-2(3H)-one] was run?
The IC50 was 14.5 nM.

With `C[C@H](O)[C@H](Nc1nc2nc(-c3noc(=O)[nH]3)nc(-c3cccc(Cl)c3)c2n1C[C@H]1CC[C@H](C)CC1)c1ccccc1` [Example 16.8, 3-(6-(3-chlorophenyl)-8-(((1R,2S)-2-hydroxy-1-phenylpropyl)amino)-7-(((trans)-4-methylcyclohexyl)methyl)-7H-purin-2-yl)-1,2,4-oxadiazol-5(4H)-one] as the molecule, how does the IC50 read?
Its IC50 is 1.49 nM.

With `C[C@@H]1OC(=O)N(c2nc3nc(-c4noc(=O)[nH]4)nc(-c4cccc(Cl)c4)c3n2C[C@H]2CC[C@H](C)CC2)[C@@H]1c1ccccc1` [Example 16.9, 3-(6-(3-chlorophenyl)-8-((4R,5S)-5-methyl-2-oxo-4-phenyloxazolidin-3-yl)-7-(((trans)-4-methylcyclohexyl)methyl)-7H-purin-2-yl)-1,2,4-oxadiazol-5(4H)-one] as the molecule, how does the IC50 read?
The IC50 was 3.01 nM.

With `C[C@@H]1COCCN1c1nc2nc(-c3noc(=O)[nH]3)nc(-c3cncc(Cl)c3)c2n1C[C@H]1CC[C@H](C)CC1` [Example 16.10, 3-(6-(5-chloropyridin-3-yl)-7-(((trans)-4-methylcyclohexyl)methyl)-8-((R)-3-methylmorpholino)-7H-purin-2-yl)-1,2,4-oxadiazol-5(4H)-one] as the molecule, how does the IC50 read?
Its IC50 is 18.1 nM.
